Results from patent US20200166517A1, “Screening Method for Identification of Neuroprotective Compounds” (Temple University-Of The Commonwealth System of Higher …, priority 2017, published 2020).
“Also recorded” adds a separate entry of the source.

How the values were obtained:
Format in all cases: cell-based
[1] = system: JNK3 activation by wtDLK-GFP; experiment: JNK3 activation by wtDLK-GFP in cotransfected HEK293T cells, detected by phosphoJNK antibody; conditions: HEK293T cells expressing myc-JNK3 plus wtDLK-GFP; vs EtOH vehicle
Protocol: FIG. 2A: HEK293T cells expressing myc-JNK3 plus wtDLK-GFP were treated with the palmitoylation inhibitor 2-Bromopalmitate (2-Br) or EtOH (vehicle). […] FIG. 2B: HEK293T cells were transfected with myc-JNK3 plus either wtDLK-GFP or a DLK palmitoyl site mutant (DLK-CS-GFP). Only wtDLK-GFP activates JNK3, as detected by phosphoJNK antibody.

[2] = target: T1, DLK-GFP (Homo sapiens, UniProt Q12852); experiment: DLK-GFP puncta / membrane localization in transfected HEK293T cells (high-content imaging, ImageXpress)
T1 sequence (Q12852 1-892 isoform Q12852-2): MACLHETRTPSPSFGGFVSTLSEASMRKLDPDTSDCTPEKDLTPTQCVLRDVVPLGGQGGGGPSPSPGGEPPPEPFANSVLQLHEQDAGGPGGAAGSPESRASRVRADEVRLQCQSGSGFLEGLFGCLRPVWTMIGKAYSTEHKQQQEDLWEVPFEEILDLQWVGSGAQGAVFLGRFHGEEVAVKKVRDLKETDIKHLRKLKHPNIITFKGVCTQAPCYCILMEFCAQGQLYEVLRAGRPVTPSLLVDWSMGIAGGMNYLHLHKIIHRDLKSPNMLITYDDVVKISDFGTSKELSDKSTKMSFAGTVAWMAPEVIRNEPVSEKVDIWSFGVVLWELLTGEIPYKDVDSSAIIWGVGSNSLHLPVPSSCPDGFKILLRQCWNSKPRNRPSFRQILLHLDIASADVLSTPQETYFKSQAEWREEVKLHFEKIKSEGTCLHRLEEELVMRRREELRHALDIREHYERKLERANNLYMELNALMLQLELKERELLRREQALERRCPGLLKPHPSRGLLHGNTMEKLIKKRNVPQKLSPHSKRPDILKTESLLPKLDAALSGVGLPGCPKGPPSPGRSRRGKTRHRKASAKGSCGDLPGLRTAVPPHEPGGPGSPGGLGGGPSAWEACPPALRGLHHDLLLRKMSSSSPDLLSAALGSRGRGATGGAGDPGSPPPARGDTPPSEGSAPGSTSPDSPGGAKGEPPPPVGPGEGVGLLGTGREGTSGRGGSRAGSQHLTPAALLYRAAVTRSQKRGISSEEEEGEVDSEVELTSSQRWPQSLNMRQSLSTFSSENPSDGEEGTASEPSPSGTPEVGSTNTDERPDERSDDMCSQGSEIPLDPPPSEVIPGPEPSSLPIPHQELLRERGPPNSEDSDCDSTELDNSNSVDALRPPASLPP
Protocol: FIG. 3A: HEK293T cells were transfected with wtDLK-GFP or DLK-CS-GFP and treated 4 h later with 2-Br or vehicle. Top: Live images of GFP fluorescence, acquired 8 h post-transfection. […] FIG. 3B: A subset of cells from FIG. 3A were fixed and immunostained with anti-GFP antibody. Images of GFP fluorescence (n=5 per condition) were analyzed by ImageXpress software. Palmitoylation-dependent differences in number of DLK-GFP puncta are readily detectable.
FIG. 6A depicts HEK293T cells transiently expressing DLK-GFP, fixed and immunostained with antibodies to detect GFP and the Golgi marker GM130. FIG. 6B depicts HEK293T cells, transfected as in FIG. 6A to express either wild type DLK-GFP (DLK-GFP) or a DLK palmitoylation site mutant (C127S-DLK-GFP). […] FIG. 6C depicts results from an experiment in which HEK293T cells were seeded into 12 wells of a 96-well plate and transfected with DLK-GFP and then treated with 2BP or vehicle (6 wells per condition). Cells were fixed in PFA and imaged using an ImageXpress High Content Imaging system to detect GFP signal. Assay quality was determined by calculating the z-prime (z′) for 6 determinations for each of the indicated conditions (z′=S/R, S=[(Mean of Vehicle treated−3×SD)−(Mean of 2BP−3×SD)], R=Vehicle Mean−2BP mean).
(§1) FIG. 7A depicts HEK293T cells co-transfected with DLK-GFP plus mCherry-NLS×3 and then treated with 2BP or vehicle were fixed to detect GFP, mCherry and the nuclear marker DAPI. […] FIG. 7B depicts design of the high-throughput screen for compounds that inhibit DLK-GFP puncta formation. FIG. 7C depicts compounds from the Prestwick Chemical Library™, which were spotted onto 96 well plates at 10 mM per compound in DMSO and diluted in DMEM prior to adding to transfected cells in duplicate at a final concentration of 10 micromolar (similar to the flow chart in FIG. 7B). 16 h later, cells were fixed in 4% PFA and stained with DAPI. High-content imaging was performed using an ImageXPress Image Analysis ‘TransFluor’ and Multi-wavelength scoring (MWS) modules. Data are plotted as total number of puncta (TransFluor Module) per total NLS (MWS module) for each compound. Drugs that decreased the nuclear NLS and/or DAPI markers below 3 times the […] were excluded due to likely toxicity or non-specific effects (plotted in grey). ‘Hits’ were drugs characterised as decreasing all ‘puncta’ readouts by more than 3 times the SD and included in 2 replicates.
(§2) FIG. 8A depicts an experiment in which HEK293T cells transiently transfected with DLK-GFP and mCherry-NLS and subsequently incubated with the indicated concentrations of Ketoconazole or 20 μM 2BP 2 hours post-transfection for 16-18 h. Cells were fixed and stained with DAPI. Scale bar represents 50 μm. FIG. 8B depicts quantified DLK puncta/NLS and nuclear counts (DAPI) from cells transfected as in FIG. 8A and treated with the indicated concentrations of ketoconazole. FIG. 8C depicts an experiment in which transiently transfected HEK293T cells were prepared as in FIG. 8A and palmitoylation (HAM+) was detected using the ABE assay. HAM- sample was generated from an equal fraction of all conditions combined.
In transfected HEK 293T cells, GFP-tagged wild type DLK (wtDLK-GFP) clearly localizes to intracellular membranes (FIG. 3, top). These membranes are distinct from the vesicles reported in neurons (likely due to different trafficking of DLK in non-neuronal cells) and instead overlap with Golgi markers, likely because many mammalian palmitoyl acyltransferases (PATs) localize to the Golgi (Levy, 2011; Ohno, 2006). […] In identically thresholded images, wtDLK-GFP puncta could be readily observed, that were absent in the 2-Br-treated and DLK-CS-GFP images (FIG. 3A, bottom). It was thus reasoned that this palmitoylation-dependent change in DLK localization should be quantifiable using high-content imaging software. […] High-content imaging detection is thus well suited to identify novel pharmacological inhibitors of DLK palmitoylation.

[3] = target: T1, DLK-GFP; experiment: Acyl-Biotin Exchange (ABE) palmitoylation assay, DLK-GFP in HEK293T cells
From the text: FIG. 4 depicts an orthogonal assay to confirm mechanism of action (MOA) of HTS Hits. HEK293T cells were transfected with wt-DLK-GFP or DLK-CS-GFP and palmitoyl-proteins were isolated by Acyl-Biotin Exchange (ABE). Palmitoyl-DLK is robustly detected in ABE fractions but no ABE signal is seen from cells treated with 2-Br, or if DLK's palmitoyl-site is mutated. DLK expressed similarly in all conditions. (Holland, 2016)
as §2
HEK293T cells were transiently transfected with FIG. 9A) DLK-GFP, FIG. 9B) GAP43-Myc, FIG. 9C) and untagged PSD95 and incubated with 20 μM 2BP, or with 2.5 μM or 5 μM ketoconazole 2 h post-transfection for 16-18 h. Palmitoylation was detected using the ABE assay (left) and quantified from n=4 determinations per condition (right). HAM- includes an equal fraction of all conditions combined. […]
(§3) If changes in DLK localization observed by high-content imaging are indeed due to altered DLK palmitoylation then this should also be reflected in biochemical assays of DLK palmitoylation levels. Palmitoylation of numerous proteins, including DLK, has been previously monitored using a non-radioactive palmitoylation assay, Acyl-Biotin Exchange (ABE) (Holland, 2016; Thomas, 2012). […] WtDLK-GFP was robustly detected in ABE fractions but was absent from controls in which the essential ABE reagent hydroxylamine (NH2OH) was omitted (FIG. 4). […]

[4] = system: HEK293T cells; experiment: mCherry-NLS×3 expression and DAPI nuclear signal (toxicity / non-specific effect readout of the screen); conditions: HEK293T co-transfected with DLK-GFP plus mCherry-NLS×3
Protocol: as §1

[5] = system: GAP43-Myc; experiment: Acyl-Biotin Exchange (ABE) palmitoylation assay, GAP43-Myc in HEK293T cells; conditions: 2.5 μM or 5 μM, 2 h post-transfection for 16-18 h, n=4; ANOVA not significant
Protocol: (§4) HEK293T cells were transiently transfected with FIG. 9A) DLK-GFP, FIG. 9B) GAP43-Myc, FIG. 9C) and untagged PSD95 and incubated with 20 μM 2BP, or with 2.5 μM or 5 μM ketoconazole 2 h post-transfection for 16-18 h. Palmitoylation was detected using the ABE assay (left) and quantified from n=4 determinations per condition (right). HAM- includes an equal fraction of all conditions combined. […] One-way ANOVA, Kruskal-Wallis post-hoc analysis; FIG. 9A) ANOVA p=0.0214, h=7.692, FIG. 9B) ANOVA not significant, FIG. 9C) ANOVA p=0.0158, h=8.290. Error bars represent SEM.
as §3, with “2012). ABE uses an exchange of thioester-linked acyl modifications (i.e. palmitoylation), for biotin, with the resultant biotinylated proteins being affinity-purified from cell lysates using neutravidin-conjugated beads.” for “2012).”

[6] = system: PSD95; experiment: Acyl-Biotin Exchange (ABE) palmitoylation assay, untagged PSD95 in HEK293T cells; conditions: 2.5 μM or 5 μM, 2 h post-transfection for 16-18 h, n=4; ANOVA p=0.0158
Protocol: as §4
as §3, with “2012). ABE uses an exchange of thioester-linked acyl modifications (i.e. palmitoylation), for biotin, with the resultant biotinylated proteins being affinity-purified from cell lysates using neutravidin-conjugated beads.” for “2012).”

[7] = system: phospho-cJun; experiment: DLK-mediated phospho-cJun activation after NGF withdrawal in DRG neurons (Western blot); conditions: DRG neurons DIV 7, 2.5 μM overnight pretreatment, 2.5 h NGF withdrawal; Bonferroni post-test p<0.01
Protocol: FIG. 10A depicts an experiment in which dorsal Root Ganglion (DRG) neurons were pretreated at 7 Days in vitro (DIV 7) with 2.5 μM Ketoconazole overnight or 20 μM 2BP for 2 h prior to a 2.5 h NGF withdrawal in presence of the indicated compound. Cells were lysed in SDS-PAGE loading buffer and levels of endogenous DLK, phospho-cJun and tubulin were detected by Western blot.
FIG. 10B depicts quantification of phospho-cJun normalised to -NGF vehicle treated cells. Two-way ANOVA indicates significant effects of interaction (p=0.0071), NGF (p=0.0026) and Ketoconazole (p=0.0001). The effect of Ketoconazole in DRGs undergoing NGF withdrawal was also significant as determined by the Bonferroni post-test (p<0.01). Error bars represent SEM.

Row | DLK-GFP puncta (DLK puncta/NLS), dose response ([2]; HEK293T, DLK-GFP and mCherry-NLS, compound added 2 hours post-transfection for 16-18 h) | SMILES | JNK3 activation (phosphorylation) by wtDLK-GFP [1] | DLK-GFP puncta ([2]; HEK293T co-transfected with DLK-GFP plus mCherry-NLS×3) | Golgi-associated clusters of DLK-GFP ([2]; HEK293T transiently expressing DLK-GFP) | DLK localization quantified by ImageXpress 'TransFluor' module (number of DLK-GFP puncta) ([2]; HEK293T, fixed, anti-GFP immunostained, n=5 images per condition) | membrane-localized wtDLK-GFP puncta / DLK-GFP membrane association ([2]; HEK293T, treated 4 h post-transfection, imaged 8 h post-transfection, thresholded images) | palmitoyl-DLK signal in ABE fractions ([3]; HEK293T transfected with wtDLK-GFP) | mCherry-NLS×3 expression and DAPI signal [4] | inhibition of DLK-GFP puncta formation (puncta per total NLS), rank in Prestwick Chemical Library screen ([2]; 10 micromolar final, duplicate, 16 h, 96-well) | palmitoylation of DLK (ABE) ([3]; 2.5 μM or 5 μM, 2 h post-transfection for 16-18 h, n=4, ANOVA p=0.0214) | DLK palmitoylation (ABE, HAM+), dose response ([3]; HEK293T, compound 2 hours post-transfection for 16-18 h) | palmitoylation of GAP-43 (ABE) [5] | palmitoylation of PSD-95 (ABE) [6] | phospho-cJun normalised to -NGF vehicle treated cells [7]
1 | – | CCCCCCCCCCCCCCC(Br)C(=O)O (centres unmarked) [2-Br, 2-Bromopalmitate] | blocks JNK3 activation; also recorded: prevented DLK-dependent phosphorylation of JNK3 | reduces DLK-GFP puncta | diffuses the Golgi-associated clusters of DLK-GFP | dramatically alters DLK localization | completely disrupted DLK-GFP membrane association; also recorded: essentially absent | no ABE signal | without affecting mCherry-NLS×3 expression or DAPI signal | – | – | – | – | – | –
2 | decreases DLK-GFP puncta | CC(=O)N1CCN(c2ccc(OCC3COC(Cn4ccnc4)(c4ccc(Cl)cc4Cl)O3)cc2)CC1 (centres unmarked) [Ketoconazole] | – | – | – | – | – | – | – | most potent compound to inhibit DLK-GFP puncta formation | significantly reduces palmitoylation of DLK | inhibits DLK palmitoylation in a dose dependent manner | does not affect palmitoylation of GAP-43 | significantly reduces palmitoylation of DLK and PSD-95 | significantly decreases DLK-mediated phospho-cJun activation; also recorded: significant
